# Measured values published in US8946197B2, “Transglutaminase TG2 inhibitors, pharmaceutical compositions, and methods of use thereof” (CHDI Foundation, Inc., priority 2009, dated 2015).
# Values joined by “and” are separate entries in the source; they are usually repeats but may differ in a detail not shown here. Identical values can stand only once.
# Target: T1, human TG2 (Homo sapiens, UniProt P21980)
# T1 sequence (P21980 1-687): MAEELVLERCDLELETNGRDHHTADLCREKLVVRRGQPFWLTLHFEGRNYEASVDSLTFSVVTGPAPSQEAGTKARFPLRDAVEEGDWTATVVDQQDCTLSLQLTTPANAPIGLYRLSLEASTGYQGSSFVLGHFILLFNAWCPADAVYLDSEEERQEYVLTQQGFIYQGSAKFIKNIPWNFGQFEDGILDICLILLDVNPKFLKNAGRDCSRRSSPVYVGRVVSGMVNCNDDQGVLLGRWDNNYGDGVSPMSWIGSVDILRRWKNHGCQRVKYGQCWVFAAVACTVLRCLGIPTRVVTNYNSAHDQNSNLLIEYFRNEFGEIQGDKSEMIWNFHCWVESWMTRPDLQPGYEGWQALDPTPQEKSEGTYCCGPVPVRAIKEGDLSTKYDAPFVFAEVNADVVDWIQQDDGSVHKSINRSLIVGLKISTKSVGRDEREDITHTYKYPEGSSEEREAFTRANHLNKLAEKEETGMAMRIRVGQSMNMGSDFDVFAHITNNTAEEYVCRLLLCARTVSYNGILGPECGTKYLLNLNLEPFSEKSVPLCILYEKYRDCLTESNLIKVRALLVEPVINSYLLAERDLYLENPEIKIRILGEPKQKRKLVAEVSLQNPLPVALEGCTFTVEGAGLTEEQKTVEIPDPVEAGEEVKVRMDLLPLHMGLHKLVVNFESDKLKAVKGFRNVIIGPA
# Assay: fluorescent screening assay for human TG2
# Format: biochemical
# Conditions: 20 nM TG2, 8 μM N,N-dimethylated Casein, 16 μM KxD, pH 7.4, 37° C
# Procedure: (§1) The fluorescent screening assay for human TG2 was performed as described herein: Assay conditions were 20 nM TG2, 8 μM N,N-dimethylated Casein (NMC) and 16 μM K×D (used for all transglutaminase assays) in 25 mM Hepes, pH 7.4, 250 mM NaCl, 2 mM MgCl2, 0.5 mM CaCl2, 0.2 mM DTT, 0.05% Pluronic F-127 at 37° C. A time point was taken with a microplate reader (Safire or Ultra, Tecan; ex: 350 nm, em: 535 nm) every 3 minutes for up to 2 hours and the initial linear reaction progress was used to determine the reaction velocity as a measure for enzyme activity. Assay conditions were identical for human TG6 and similar for human TG1 and mouse TG2 apart from enzyme concentration (mTG2 at 5 nM; TG1 at 10 nM) and CaCl2 concentration (0.2 mM for mTG2; 0.05 mM for TG1). Factor XIIIa was activated using 0.1 μg/μl thrombin (Sigma) in 35 mM Tris pH 8.0 for 20 min at 30° C. and the transamidation reaction was performed with 20 nM Factor XIIIa in 50 mM Tris pH 8.0, 1.25 mM CaCl2, 0.05% Pluronic, 0.2 mM DTT. TG3 was activated with 0.02 μg/μl thrombin under the same conditions as Factor XIIIa and assay conditions were 10 nM TG3 in 50 mM Hepes, pH 8, 20 mM CaCl2, 0.2 mM DTT, 0.05% Pluronic F-127.
# as §1, with “A” for “The”
row,IC50,SMILES
1,< 100 nM and 100 to 1000 nM,C=CC(=O)Nc1ccc(S(=O)(=O)N2CCC(C(=O)N(C)c3ccccc3)CC2)cc1 [1-(4-Acryloylamino-benzenesulfonyl)-piperidine-4-carboxylic acid methyl-phenyl-amide]
2,100 to 1000 nM and < 100 nM,C=CC(=O)Nc1ccc(S(=O)(=O)N2CCN(C(=O)OC(C)(C)C)CC2)c(Cl)c1 [4-(4-Acryloylamino-2-chloro-benzenesulfonyl)-piperazine-1-carboxylic acid tert-butyl ester]
3,1000 to 25000 nM,C=CC(=O)Nc1ccc(S(=O)(=O)N2CCN(C(=O)OC(C)(C)C)CC2)c(OC)c1 [4-(4-Acryloylamino-2-methoxy-benzenesulfonyl)-piperazine-1-carboxylic acid tert-butyl ester]
4,1000 to 25000 nM,C=CC(=O)Nc1ccc(S(=O)(=O)N2CCN(C(=O)OC(C)(C)C)CC2)c(C)c1 [4-(4-Acryloylamino-2-methyl-benzenesulfonyl)-piperazine-1-carboxylic acid tert-butyl ester]
5,1000 to 25000 nM,C=CC(=O)Nc1ccc(S(=O)(=O)N2CCN(C(=O)OCc3ccccc3)CC2)cc1F [4-(4-Acryloylamino-3-fluoro-benzenesulfonyl)-piperazine-1-carboxylic acid benzyl ester]
6,100 to 1000 nM and < 100 nM,C=CC(=O)Nc1ccc(S(=O)(=O)N2CCN(C(=O)OCc3ccccc3)C(CC(=O)NC3C4CC5CC(C4)CC3C5)C2)cc1 (stereo not shown) [4-(4-Acryloylamino-benzenesulfonyl)-2-(adamantan-2-ylcarbamoylmethyl)-piperazine-1-carboxylic acid benzyl ester]
7,100 to 1000 nM and < 100 nM,C=CC(=O)Nc1ccc(S(=O)(=O)N2CCN(C(=O)OC(C)(C)C)C(c3ccco3)C2)cc1 (stereo not shown) [4-(4-Acryloylamino-benzenesulfonyl)-2-furan-2-yl-piperazine-1-carboxylic acid tert-butyl ester]
8,100 to 1000 nM and < 100 nM,C=CC(=O)Nc1ccc(S(=O)(=O)N2CCN(C(=O)OC(C)(C)C)[C@@H](C(C)C)C2)cc1 [4-(4-Acryloylamino-benzenesulfonyl)-2-isopropyl-piperazine-1-carboxylic acid tert-butyl ester]
9,100 to 1000 nM and < 100 nM,C=CC(=O)Nc1ccc(S(=O)(=O)N2CCN(C(=O)OCc3ccccc3)C(CC(=O)OC)C2)cc1 (stereo not shown) [4-(4-Acryloylamino-benzenesulfonyl)-2-methoxycarbonylmethyl-piperazine-1-carboxylic acid benzyl ester]
10,100 to 1000 nM and < 100 nM,C=CC(=O)Nc1ccc(S(=O)(=O)N2CCN(C(=O)OCc3ccccc3)[C@@H](C)C2)cc1 [4-(4-Acryloylamino-benzenesulfonyl)-2-methyl-piperazine-1-carboxylic acid benzyl ester]
11,100 to 1000 nM and < 100 nM,"C=CC(=O)Nc1ccc(S(=O)(=O)N2CCN(C(=O)OCc3cccc(F)c3F)CC2)cc1 [4-(4-Acryloylamino-benzenesulfonyl)-piperazine-1-carboxylic acid 2,3-difluoro-benzyl ester]"
12,100 to 1000 nM and < 100 nM,"C=CC(=O)Nc1ccc(S(=O)(=O)N2CCN(C(=O)OCc3cccc(OC)c3OC)CC2)cc1 [4-(4-Acryloylamino-benzenesulfonyl)-piperazine-1-carboxylic acid 2,3-dimethoxy-benzyl ester]"
13,100 to 1000 nM and < 100 nM,"C=CC(=O)Nc1ccc(S(=O)(=O)N2CCN(C(=O)OCc3c(F)cccc3F)CC2)cc1 [4-(4-Acryloylamino-benzenesulfonyl)-piperazine-1-carboxylic acid 2,6-difluoro-benzyl ester]"
14,100 to 1000 nM and < 100 nM,C=CC(=O)Nc1ccc(S(=O)(=O)N2CCN(C(=O)OCc3ccccc3Cl)CC2)cc1 [4-(4-Acryloylamino-benzenesulfonyl)-piperazine-1-carboxylic acid 2-chloro-benzyl ester]
15,100 to 1000 nM and < 100 nM,C=CC(=O)Nc1ccc(S(=O)(=O)N2CCN(C(=O)OCc3ccccc3C)CC2)cc1 [4-(4-Acryloylamino-benzenesulfonyl)-piperazine-1-carboxylic acid 2-methyl-benzyl ester]
16,100 to 1000 nM and < 100 nM,"C=CC(=O)Nc1ccc(S(=O)(=O)N2CCN(C(=O)OCc3cc(F)cc(F)c3)CC2)cc1 [4-(4-Acryloylamino-benzenesulfonyl)-piperazine-1-carboxylic acid 3,5-difluoro-benzyl ester]"
